Assay results: US5885834A, “Antisense oligodeoxynucleotide against phosphodiesterase” (priority 1997, dated 1999)
“Also recorded” adds a separate entry of the source.

Key:
isolated, quiescent HPBL = assay: TUNEL assay of apoptosis, flow cytometry, quiescent HPBL; type: cell-based, human; details: isolated, quiescent HPBL in culture, ODN added
Excerpt: (§1) Nevertheless, the effects of AS ODNs on HPBL can still be tested by quantifying and comparing the percentage of cells undergoing apoptosis in the presence and absence of the AS ODN. Apoptosis detected by examining endonuclease-digested DNA, commonly referred to as the DNA laddering technique, has been employed and the results therefrom are set forth in FIG. 5. However, we prefer to use a TUNEL assay, an acronym for terminal deoxynucleotidyl transferase (TdT)-mediated dUTP nick end labeling, which more readily allows quantitation of the percentage of cells undergoing apoptosis. The principle of the TUNEL assay is that endonuclease digestion during apoptosis results in the formation of 3'-OH ends in the digested DNA. The digested DNA in the apoptotic cells can then be labeled with fluorescein by catalytically incorporating fluorescein-12-dUTP at the 3'-OH ends using the TdT enzyme. Fluorescence can then be quantitated by flow cytometry, using a fluorescence activated cell sorter (FACS), which would give a measure of the number of cells undergoing apoptosis. An example of the appearance of a population of fluorescein labeled apoptotic cells, as evidenced by flow cytometry, following TUNEL assay labeling of the cells, is shown in FIGS. 6A-C. Cells were then cultured for 3 days with 10 μg/ml PHA-P (Sigma), in the absence of any ODN (FIG. 6A), in the presence of 30 μM NS ODN (FIG. 6B), or in the presence of 30 μM AS ODN (FIG. 6C). Cells were then collected by centrifugation and fluorescein labeled by the TUNEL assay using the Promega Apoptosis Detection System. Flow cytometry was performed on a Beckton Dickinson FACScan by the FACS facility.
The procedure for analyzing apoptosis by the TUNEL method uses either an In Situ Cell Death Kit, Fluorescein from Boehringer Mannheim or an Apoptosis Detection System, Fluorescein from Promega and follows the protocols of the manufacturers. The data in FIGS. 6 and 7 was obtained using the manufacturer's protocol for the Apoptosis Detection System, Fluorescein from Promega. […]

PHA-stimulated HPBL = assay: TUNEL assay of apoptosis, flow cytometry, PHA-stimulated HPBL; type: cell-based, human; details: 10 μg/ml PHA-P; 30 μM ODN; 3 days
Excerpt: as §1, with “Cells were then cultured for 3 days with 10 μg/ml PHA-P (Sigma), in the absence of any ODN (FIG. 6A), in the presence of 30 μM NS ODN (FIG. 6B), or in the presence of 30 μM AS ODN (FIG. 6C). Cells were then collected by centrifugation and fluorescein labeled by the TUNEL assay using the Promega Apoptosis Detection System. Flow cytometry was performed on a Beckton Dickinson FACScan by the FACS facility.” left out

Row | Substance | Rate of formation of apoptotic HPBL cells (TUNEL) (isolated, quiescent HPBL) | Apoptosis in PHA-stimulated HPBL (TUNEL) (PHA-stimulated HPBL)
1 | 5'-GGACAGCTCCATGCTCAG-3' (phosphorothioate, further chemistry not given here) [AS ODN, 18 nt phosphorothioate antisense oligodeoxynucleotide targeted against the translation initiation region of PDE1B1] | unchanged | show the appearance of a population of highly fluorescein labeled cells; also recorded: induced apoptosis
2 | 5'-TACGTGAGGCACCTACGC-3' (phosphorothioate, further chemistry not given here) [NS ODN, control phosphorothioate nonsense ODN, same base composition as the AS ODN in random, scrambled order] | no different from control | do not show the appearance of this population; also recorded: no effect
